Measured values as given in article PMC8699261, “Structural Characterization of Rat Galectin-5, an N-Tailed Monomeric Proto-Type-like Galectin” (Biomolecules, 2021).
Values joined by “and” are separate entries in the source; they are usually repeats but may differ in a detail not shown here. Identical values can stand only once. Like-named read-outs stand apart in the source and are kept apart here.

How the values were obtained:
rat galectin-5 (rGal-5) [1] = target: T1, rat galectin-5 (rGal-5) (Rattus norvegicus, UniProt P47967); assay: Glycan array (609 compounds) tested with biotinylated rGal-5, Alexa555-streptavidin detection; type: binding; settings: 100 µg/mL biotinylated rGal-5; ranking in words
T1 construct: we used the full-length protein to obtain structural information on the N-terminal tail; made in house
T1 sequence (P47967 whole entry): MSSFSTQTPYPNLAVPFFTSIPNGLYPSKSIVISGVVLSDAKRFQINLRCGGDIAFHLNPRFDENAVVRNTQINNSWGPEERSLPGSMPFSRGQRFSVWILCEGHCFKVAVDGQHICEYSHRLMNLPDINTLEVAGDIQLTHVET
Experimental: The array consisted of 609 compounds covering glycans and polysaccharides printed onto commercial NHS-activated Slide H (Schott Nexterion, Jena, Germany), tested with 100 µg/mL biotinylated rGal-5 and involving Alexa555-labeled streptavidin (Thermo Fisher Scientific, Eugene, OR, USA) as second-step reagent for Innoscan 1100AL scanner-based (Innopsys, Carbonne, France) signal qualification, expressed in medium relative fluorescence units (RFU) and medium absolute deviation (MAD), as described previously. When the fluorescence intensity exceeded the background value by a factor of five, the respective signal was considered to be significant.

rat galectin-5 (rGal-5) [2] = target: T1, rat galectin-5 (rGal-5); assay: Isothermal titration calorimetry (ITC) of ligand binding to recombinant rGal-5
Experimental: The spacered B (type 2) tetrasaccharide was synthesized as described previously. Titrations were monitored in a PEAQ-ITC calorimeter (Malvern, Westborough, MA, USA), using a galectin-containing solution of 250 µL in PBS (10 mM Na2HPO4, 2 mM KH2PO4, 137 mM NaCl and 3 mM KCl at pH 6.8) containing 10 mM β-mercaptoethanol and injections at 150 s intervals of 2 µL ligand-containing solution (up to adding 36.4 µL) at 25 °C (750 rpm), as described. The protein concentration was 125 μM, and the ligand concentration in the syringe was 2.5 mM. In each titration, a fitted offset parameter was applied to account for potential background. Data processing was performed using the MiroCal PEAQ-ITC Analysis software.

[3] = 25 °C, individual titration, protein 125 μM, ligand 2.5 mM in syringe, PBS pH 6.8, read-out: Kd
[4] = (summarises Table 2), read-out: dissociation constant

Stoichiometry (rat galectin-5 (rGal-5) [2]; 25 °C, individual titration)	ΔG0obs (rat galectin-5 (rGal-5) [2]; 25 °C, individual titration)	−TΔS0obs (rat galectin-5 (rGal-5) [2]; 25 °C, individual titration)	Kd (rat galectin-5 (rGal-5) [2]; [3])	Kd (rat galectin-5 (rGal-5) [2]; [4]) [µM]	Compound	signal intensity in glycan array (rat galectin-5 (rGal-5) [1])	ΔH0obs (rat galectin-5 (rGal-5) [2]; 25 °C, individual titration)
–	–	–	–	–	CC(=O)N[C@H]1C(O)O[C@H](CO)[C@@H](O[C@@H]2O[C@H](CO)[C@H](O)[C@H](O[C@H]3O[C@H](CO)[C@H](O)[C@H](O)[C@H]3O)[C@H]2O)[C@@H]1O (some centres unmarked)	frontrunners in terms of signal intensity	–
0.95 ± 0.05 and 0.99 ± 0.06	-5.35 kcal/mol and -5.22 kcal/mol	-0.36 kcal/mol and -0.18 kcal/mol	121 µM and 151 µM	136 ± 16	OC[C@H]1O[C@@H](O[C@H]2[C@H](O)[C@@H](O)C(O)O[C@@H]2CO)[C@H](O)[C@@H](O)[C@H]1O (mixture of isomers) [Lactose, lactose]	–	-4.99 ± 0.08 kcal/mol and -5.03 ± 0.41 kcal/mol
0.92 ± 0.01 and 0.94 ± 0.20	-6.1 kcal/mol and -6.0 kcal/mol	3.87 kcal/mol and 4.43 kcal/mol	28.6 µM and 32.3 µM	30.5 ± 1.9	CC(=O)N[C@H]1C(O)O[C@H](CO)[C@@H](O[C@@H]2O[C@H](CO)[C@H](O)[C@H](O)[C@H]2O)[C@@H]1O (some centres unmarked) [LacNAc, N-acetyllactosamine]	–	-10.0 ± 0.2 kcal/mol and -10.5 ± 2.6 kcal/mol
0.98 ± 0.01 and 0.94 ± 0.01	-7.11 kcal/mol	-1.37 kcal/mol and -1.51 kcal/mol	5 µM and 6.1 µM	5.5 ± 0.6	histo-blood-group B (type 2) tetrasaccharide [Tetrasacc haride]	frontrunners in terms of signal intensity	-5.74 ± 0.03 kcal/mol and -5.60 ± 0.03 kcal/mol
